Results published in publication PMC4417724 (Nature, 2014).

Legend:
[1] = target: FLAG-RTCB (human tRNA ligase complex) with recombinant Archease (Homo sapiens, UniProt Q9Y3I0); assay: radiolabelled guanylation, SDS-PAGE autoradiography; format: biochemical; details: covalent RTCB-guanylate intermediate; labelled compound; Archease 10 μM, ATP, Mg(OAc)2, pH 7.5, 37 °C
[2] = target: recombinant hexahistidine tagged human Archease (human); assay: SPR

FLAG-RTCB (human tRNA ligase complex) with recombinant Archease, sequence (Q9Y3I0 whole entry): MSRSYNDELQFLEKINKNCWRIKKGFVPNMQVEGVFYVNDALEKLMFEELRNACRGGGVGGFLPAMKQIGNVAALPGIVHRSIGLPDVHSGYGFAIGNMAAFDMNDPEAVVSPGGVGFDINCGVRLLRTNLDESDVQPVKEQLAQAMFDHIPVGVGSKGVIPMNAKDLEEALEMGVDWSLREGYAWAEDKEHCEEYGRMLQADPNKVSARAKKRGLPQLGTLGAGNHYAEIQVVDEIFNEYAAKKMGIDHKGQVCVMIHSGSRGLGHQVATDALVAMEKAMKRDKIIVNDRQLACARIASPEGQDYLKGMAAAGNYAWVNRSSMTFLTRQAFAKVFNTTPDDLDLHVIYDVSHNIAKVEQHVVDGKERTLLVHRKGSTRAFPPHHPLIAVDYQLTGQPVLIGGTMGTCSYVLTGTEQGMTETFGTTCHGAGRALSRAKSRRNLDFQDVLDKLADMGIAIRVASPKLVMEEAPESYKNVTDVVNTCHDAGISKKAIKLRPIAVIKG
FLAG-RTCB (human tRNA ligase complex) with recombinant Archease, sequence (Q8IWT0 2-167 partner): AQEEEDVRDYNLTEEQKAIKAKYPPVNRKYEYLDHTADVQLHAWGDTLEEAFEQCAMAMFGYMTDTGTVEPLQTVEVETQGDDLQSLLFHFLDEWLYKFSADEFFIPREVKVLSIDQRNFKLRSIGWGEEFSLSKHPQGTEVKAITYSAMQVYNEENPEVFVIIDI
FLAG-RTCB (human tRNA ligase complex) with recombinant Archease, sequence (Q92499 whole entry partner): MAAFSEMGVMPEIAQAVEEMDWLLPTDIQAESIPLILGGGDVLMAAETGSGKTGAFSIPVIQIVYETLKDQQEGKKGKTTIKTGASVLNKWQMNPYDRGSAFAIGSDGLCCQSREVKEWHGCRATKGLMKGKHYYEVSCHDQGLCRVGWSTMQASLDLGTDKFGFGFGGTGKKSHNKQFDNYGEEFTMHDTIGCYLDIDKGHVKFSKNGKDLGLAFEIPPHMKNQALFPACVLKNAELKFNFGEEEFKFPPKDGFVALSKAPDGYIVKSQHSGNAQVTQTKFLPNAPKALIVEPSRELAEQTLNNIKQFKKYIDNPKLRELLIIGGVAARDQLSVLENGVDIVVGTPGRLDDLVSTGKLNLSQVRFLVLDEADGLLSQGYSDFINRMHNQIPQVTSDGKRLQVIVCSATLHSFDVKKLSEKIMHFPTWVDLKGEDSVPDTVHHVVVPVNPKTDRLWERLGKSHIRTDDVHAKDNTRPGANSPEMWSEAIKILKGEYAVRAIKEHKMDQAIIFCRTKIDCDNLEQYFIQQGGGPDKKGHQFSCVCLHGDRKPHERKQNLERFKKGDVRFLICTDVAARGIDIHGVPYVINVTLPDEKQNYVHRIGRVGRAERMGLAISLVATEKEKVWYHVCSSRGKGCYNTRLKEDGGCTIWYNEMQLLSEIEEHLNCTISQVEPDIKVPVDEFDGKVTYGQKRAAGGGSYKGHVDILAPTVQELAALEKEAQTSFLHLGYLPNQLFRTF
FLAG-RTCB (human tRNA ligase complex) with recombinant Archease, sequence (Q52LJ0 whole entry partner): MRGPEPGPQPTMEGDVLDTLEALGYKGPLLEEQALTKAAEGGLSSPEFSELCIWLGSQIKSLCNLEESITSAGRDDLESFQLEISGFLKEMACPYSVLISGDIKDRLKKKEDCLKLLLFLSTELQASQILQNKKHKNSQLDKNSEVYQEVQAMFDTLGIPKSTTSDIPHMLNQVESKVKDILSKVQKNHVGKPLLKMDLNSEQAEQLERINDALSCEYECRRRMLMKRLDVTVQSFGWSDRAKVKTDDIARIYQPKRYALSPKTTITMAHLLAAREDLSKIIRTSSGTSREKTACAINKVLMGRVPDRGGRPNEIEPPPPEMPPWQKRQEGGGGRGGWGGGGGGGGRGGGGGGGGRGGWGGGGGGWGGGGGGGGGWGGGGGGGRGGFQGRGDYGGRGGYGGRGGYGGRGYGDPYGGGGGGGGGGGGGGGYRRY
FLAG-RTCB (human tRNA ligase complex) with recombinant Archease, sequence (Q9BVC5 whole entry partner): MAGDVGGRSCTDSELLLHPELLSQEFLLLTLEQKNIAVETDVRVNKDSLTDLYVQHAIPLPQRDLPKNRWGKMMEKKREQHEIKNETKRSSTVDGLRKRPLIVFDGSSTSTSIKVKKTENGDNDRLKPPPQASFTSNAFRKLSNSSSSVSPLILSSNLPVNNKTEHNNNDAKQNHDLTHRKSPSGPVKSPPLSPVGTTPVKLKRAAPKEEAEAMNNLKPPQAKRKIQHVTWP
FLAG-RTCB (human tRNA ligase complex) with recombinant Archease, sequence (Q9Y224 whole entry partner): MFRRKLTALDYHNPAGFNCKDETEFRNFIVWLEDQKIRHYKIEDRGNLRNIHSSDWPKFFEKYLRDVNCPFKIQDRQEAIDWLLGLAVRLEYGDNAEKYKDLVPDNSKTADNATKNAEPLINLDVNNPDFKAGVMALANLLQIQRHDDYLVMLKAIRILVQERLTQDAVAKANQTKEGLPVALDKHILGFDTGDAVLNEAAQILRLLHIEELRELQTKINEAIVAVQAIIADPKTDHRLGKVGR

| Compound | radiolabelled guanylation, SDS-PAGE autoradiography [1] | Kd [2] |
| --- | --- | --- |
| Nc1nc2c(ncn2[C@@H]2O[C@H](COP(=O)(O)OP(=O)(O)OP(=O)(O)O)[C@@H](O)[C@H]2O)c(=O)[nH]1 [GTP] | Formation of a radiolabeled band corresponding to guanylated human FLAG-RTCB required the addition of WT Archease | – |
| FLAG-RTCB complexes (human tRNA ligase complex affinity-purified by FLAG-RTCB) (from UniProt Q9Y3I0;Q92499;Q52LJ0;Q9Y224;Q9BVC5) | – | 1.8 nM |
